This is an account of results in ChEMBL document CHEMBL1909046, “DrugMatrix in vitro pharmacology data”.

Assay [1] can be described thus: DRUGMATRIX: Imidazoline I2, Central radioligand binding (ligand: [3H] Idazoxan). The assay is classed as cell membranes, Rattus norvegicus, Wistar, Cerebral cortex, Membrane. As to conditions: Not Active = under 50% inhibition at 10 µM.
A short description of assay [2]: DRUGMATRIX: Glutamate, NMDA, Agonism radioligand binding (ligand: [3H] CGP-39653). In kind it is cell membranes, Rattus norvegicus, Wistar, Cerebral cortex, Membrane. As to conditions: Not Active = under 50% inhibition at 10 µM.
Assay [3] addresses T1, Cysteinyl leukotriene receptor 1 (Homo sapiens, UniProt Q9Y271).
T1 sequence (Q9Y271 whole entry): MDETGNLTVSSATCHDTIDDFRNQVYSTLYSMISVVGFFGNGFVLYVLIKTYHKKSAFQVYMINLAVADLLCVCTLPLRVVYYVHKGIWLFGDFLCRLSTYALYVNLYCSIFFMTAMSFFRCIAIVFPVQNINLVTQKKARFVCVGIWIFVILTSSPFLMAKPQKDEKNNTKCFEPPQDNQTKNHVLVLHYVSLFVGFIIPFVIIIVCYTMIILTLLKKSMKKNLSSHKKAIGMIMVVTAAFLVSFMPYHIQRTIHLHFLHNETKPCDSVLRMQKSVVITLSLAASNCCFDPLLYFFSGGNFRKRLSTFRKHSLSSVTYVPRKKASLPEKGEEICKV
The assay is classed as cell membranes, Membrane. As to conditions: cho-k1.

The target of assay [4] is 5-hydroxytryptamine receptor 4 (Cavia porcellus, UniProt O70528). The assay is classed as cell membranes, Dunkin-Hartley, Striatum, Membrane. Also: in other assays of this panel Not Active means under 50% inhibition at 10 µM.
For another assay, the target named is T2, Interstitial collagenase (Homo sapiens, UniProt P03956).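 Also: MMP-1 enzyme inhibition assay using a peptide substrate; in other assays of this panel Not Active means under 50% inhibition at 10 µM.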
T2 sequence (P03956 whole entry): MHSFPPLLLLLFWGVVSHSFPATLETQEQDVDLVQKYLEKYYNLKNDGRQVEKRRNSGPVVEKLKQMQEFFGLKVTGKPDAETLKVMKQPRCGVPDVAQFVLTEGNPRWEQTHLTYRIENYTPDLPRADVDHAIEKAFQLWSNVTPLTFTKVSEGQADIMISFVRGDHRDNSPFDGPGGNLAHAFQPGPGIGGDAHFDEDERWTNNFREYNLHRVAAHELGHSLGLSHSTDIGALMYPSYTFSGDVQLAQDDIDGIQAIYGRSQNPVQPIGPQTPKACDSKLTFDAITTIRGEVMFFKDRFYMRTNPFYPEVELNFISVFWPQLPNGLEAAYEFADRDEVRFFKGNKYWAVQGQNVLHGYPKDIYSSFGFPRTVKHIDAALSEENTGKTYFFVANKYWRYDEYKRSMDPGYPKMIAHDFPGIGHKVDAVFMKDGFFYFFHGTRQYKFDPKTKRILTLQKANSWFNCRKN
The experiment in a line: biochemical. In kind it is tissue-based, Rheumatoid synovial fibroblasts.

A short description of assay [5]: DRUGMATRIX: Purinergic P2X radioligand binding (ligand: [3H] alpha, beta-Methylene-ATP). The assay is classed as cell membranes, Oryctolagus cuniculus, New Zealand albino, Urinary bladder, Membrane. As to conditions: Not Active = under 50% inhibition at 10 µM.
Assay [6] is described as follows: DRUGMATRIX: Glutamate, AMPA radioligand binding (ligand: [3H] AMPA). As to conditions: Not Active = under 50% inhibition at 10 µM. The assay is classed as cell membranes, Rattus norvegicus, Wistar, Cerebral cortex, Membrane.

5-hydroxytryptamine receptor 4, sequence (O70528 whole entry): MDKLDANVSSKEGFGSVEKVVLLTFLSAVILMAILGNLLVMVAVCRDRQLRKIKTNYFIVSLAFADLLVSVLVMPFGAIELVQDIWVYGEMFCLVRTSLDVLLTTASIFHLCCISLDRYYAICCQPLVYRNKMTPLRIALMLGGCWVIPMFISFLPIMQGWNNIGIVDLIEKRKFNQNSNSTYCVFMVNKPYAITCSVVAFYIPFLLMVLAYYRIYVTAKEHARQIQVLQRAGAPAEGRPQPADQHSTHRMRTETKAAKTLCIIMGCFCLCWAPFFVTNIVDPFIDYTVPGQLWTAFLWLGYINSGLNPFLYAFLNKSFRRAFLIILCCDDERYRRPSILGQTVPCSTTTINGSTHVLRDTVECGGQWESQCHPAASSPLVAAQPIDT

With `COc1ccc2cc3[n+](cc2c1OC)CCc1cc2c(cc1-3)OCO2.[Cl-]` [BERBERINE CHLORIDE], the half-maximal inhibitory concentration (IC50) (in general, the concentration that inhibits the measured activity by half) is 1280 nM in assay [1] (read-out: IC50); “Not Active” in assay [2]; “Not Active” in assay [3]; 2220 nM in assay [4] (read-out: IC50); “Not Active” against Interstitial collagenase; “Not Active” in assay [5]. For the same compound, the IC50 entry in assay [6] is on record as “Not Active”. In addition, the inhibition constant (Ki) – broadly, the equilibrium dissociation constant of an inhibitor or competing ligand from its target – in assay [1] (read-out: Ki) was 852 nM; in assay [2] it was “Not Active”; in assay [4] (read-out: Ki), 370 nM; in assay [5] it was “Not Active”; in assay [6], “Not Active”.
On to `O=C(O)CCNC(=O)c1ccccc1` [BETAMIPRON], for which the concentration for half-maximal inhibition (IC50) result (in assay [1]; in assay [2]; in assay [3]; in assay [4]; at Interstitial collagenase; in assay [5]) was “Not Active” in each case. The half-inhibitory concentration (IC50) result in assay [6] is “Not Active”. Also, the inhibition constant Ki entry in assay [1], in assay [2], in assay [5] and in assay [6] was “Not Active” each time.
Turning to `CC(=O)Oc1ccc(C(c2ccc(OC(C)=O)cc2)c2ccccn2)cc1` [BISACODYL], the IC50 entry (in assay [1]; in assay [2]; in assay [3]; in assay [4]; at Interstitial collagenase; in assay [5]) was “Not Active” in each case. For the same compound, in assay [6], the IC50 result was “Not Active”. Besides, the Ki entry in assay [1], in assay [2], in assay [5] and in assay [6] was “Not Active” throughout.
`Cc1cc2c(OCC(CNC(C)(C)C)OC(=O)c3ccccc3)cccc2[nH]1` (stereo unspecified) [BOPINDOLOL]: the 50% inhibitory concentration (IC50) result (in assay [1]; in assay [2]; in assay [3]; in assay [4]; against Interstitial collagenase; in assay [5]) was “Not Active” throughout. For the same compound, the IC50 entry in assay [6] is “Not Active”. Besides, the Ki entry in assay [1], in assay [2], in assay [5] and in assay [6] was “Not Active” each time.
As for `Brc1c(NC2=NCCN2)ccc2nccnc12` [BRIMONIDINE], the IC50 is 74 nM in assay [1] (read-out: IC50); “Not Active” in assay [2]; “Not Active” in assay [3]; “Not Active” in assay [4]; “Not Active” on Interstitial collagenase; “Not Active” in assay [5]. Also, in assay [6], the half-maximal inhibitory concentration (IC50) result is reported as “Not Active”. The Ki in assay [1] (read-out: Ki) was 49 nM; in assay [2], “Not Active”; in assay [5], “Not Active”; in assay [6], “Not Active”.
As to `CN(C)[C@@H]1C(O)=C(C(N)=O)C(=O)[C@@]2(O)C(O)=C3C(=O)c4c(O)ccc(Cl)c4[C@@](C)(O)[C@H]3C[C@@H]12` [CHLORTETRACYCLINE], the half-inhibitory concentration (IC50) entry (in assay [1]; in assay [2]; in assay [3]; in assay [4]; at Interstitial collagenase; in assay [5]) was “Not Active” each time. Also, in assay [6], the IC50 entry is “Not Active”. Moreover, the inhibition constant Ki result in assay [1], in assay [2], in assay [5] and in assay [6] was “Not Active” in each case.
For the compound `CN/C(=N\CCSCc1nc[nH]c1C)NC#N` [CIMETIDINE], the half-inhibitory concentration (IC50) result (in assay [1]; in assay [2]; in assay [3]; in assay [4]; on Interstitial collagenase; in assay [5]) was “Not Active” in each case. In addition, in assay [6], the IC50 result is “Not Active”. Moreover, the inhibition constant (Ki) entry in assay [1], in assay [2], in assay [5] and in assay [6] was “Not Active” in each case.
Consider `CCC(=O)O[C@]1(C(=O)CCl)[C@@H](C)C[C@H]2[C@@H]3CCC4=CC(=O)C=C[C@]4(C)[C@@]3(F)[C@@H](O)C[C@@]21C` [CLOBETASOL PROPIONATE], for which the IC50 entry (in assay [1]; in assay [2]; in assay [3]; in assay [4]; against Interstitial collagenase; in assay [5]) was “Not Active” in each case. Also, the IC50 entry in assay [6] is given as “Not Active”. For the same compound, the Ki entry in assay [1], in assay [2], in assay [5] and in assay [6] was “Not Active” each time.
Regarding `O=C1CN=C(c2ccccc2Cl)c2cc([N+](=O)[O-])ccc2N1` [CLONAZEPAM], the IC50 entry (in assay [1]; in assay [2]; in assay [3]; in assay [4]; against Interstitial collagenase; in assay [5]) was “Not Active” throughout. In addition, the half-maximal inhibitory concentration (IC50) entry in assay [6] is recorded as “Not Active”. The inhibition constant (Ki) result in assay [1], in assay [2], in assay [5] and in assay [6] was “Not Active” in each case.
As for `Nc1ccn([C@@H]2O[C@H](CO)[C@@H](O)[C@@H]2O)c(=O)n1` [CYTARABINE], the IC50 entry (in assay [1]; in assay [2]; in assay [3]; in assay [4]; at Interstitial collagenase; in assay [5]) was “Not Active” in each case. For the same compound, the IC50 entry in assay [6] is listed as “Not Active”. The Ki entry in assay [1], in assay [2], in assay [5] and in assay [6] was “Not Active” throughout.
Regarding `C[C@@H]1C[C@H]2[C@@H]3CCC4=CC(=O)C=C[C@]4(C)[C@@]3(F)[C@@H](O)C[C@]2(C)[C@H]1C(=O)CO` [DESOXIMETASONE], the half-maximal inhibitory concentration (IC50) entry (in assay [1]; in assay [2]; in assay [3]; in assay [4]; at Interstitial collagenase; in assay [5]) was “Not Active” throughout. Also, the IC50 result in assay [6] was “Not Active”. Further, the inhibition constant (Ki) entry in assay [1], in assay [2], in assay [5] and in assay [6] was “Not Active” throughout.
As to `C[C@@H]1C[C@H]2[C@@H]3CCC4=CC(=O)C=C[C@]4(C)[C@@]3(F)[C@@H](O)C[C@]2(C)[C@@]1(O)C(=O)CO` [DEXAMETHASONE], the concentration for half-maximal inhibition (IC50) entry (in assay [1]; in assay [2]; in assay [3]; in assay [4]; at Interstitial collagenase; in assay [5]) was “Not Active” throughout. Further, the half-inhibitory concentration (IC50) entry in assay [6] is recorded as “Not Active”. Further, the Ki entry in assay [1], in assay [2], in assay [5] and in assay [6] was “Not Active” throughout.
Take `CN(C)CC[C@@H](c1ccc(Cl)cc1)c1ccccn1` [DEXCHLORPHENIRAMINE]: the IC50 in assay [1] (read-out: IC50) is 15200 nM; in assay [2], “Not Active”; in assay [3], “Not Active”; in assay [4], “Not Active”; on Interstitial collagenase it was “Not Active”; in assay [5] it was “Not Active”. Also, the IC50 entry in assay [6] is “Not Active”. Besides, the inhibitory constant (Ki) in assay [1] (read-out: Ki) is 10100 nM; in assay [2], “Not Active”; in assay [5], “Not Active”; in assay [6], “Not Active”.
For the compound `C[C@@H]1CC[C@@]2(OC1)O[C@H]1[C@@H](O)[C@H]3[C@@H]4CC[C@H]5C[C@@H](O[C@@H]6O[C@H](CO)[C@H](O[C@@H]7O[C@H](CO)C(O)[C@H](O[C@@H]8OC[C@@H](O)[C@H](O)[C@H]8O)[C@H]7O[C@@H]7O[C@H](CO)[C@H](O)[C@H](O[C@@H]8O[C@H](CO)[C@@H](O)[C@H](O)[C@H]8O)[C@H]7O)[C@H](O)[C@H]6O)[C@H](O)C[C@]5(C)[C@H]4CC[C@]3(C)[C@H]1[C@@H]2C` (stereo partly specified) [DIGITONIN], the IC50 result (in assay [1]; in assay [2]; in assay [3]; in assay [4]; at Interstitial collagenase; in assay [5]) was “Not Active” in each case. For the same compound, the IC50 result in assay [6] is listed as “Not Active”. Moreover, the Ki result in assay [1], in assay [2], in assay [5] and in assay [6] was “Not Active” in each case.
For the compound `OC(CCCN1CCCCC1)(c1ccccc1)c1ccccc1` [DIPHENIDOL], the 50% inhibitory concentration (IC50) entry (in assay [1]; in assay [2]; in assay [3]; in assay [4]; against Interstitial collagenase; in assay [5]) was “Not Active” in each case. Further, the concentration for half-maximal inhibition (IC50) result in assay [6] is on record as “Not Active”. Further, the inhibitory constant (Ki) entry in assay [1], in assay [2], in assay [5] and in assay [6] was “Not Active” each time.
